Results published in patent US5593984A, “Cephalosporin derivatives” (Yuhan Corporation, priority 1992, dated 1997).
In brackets after ≈: the same amount, converted by molar mass.

Assays:
E. coli DY-1 = experiment: MIC by agar dilution, E. coli DY-1; format: cell-based; settings: Escherichia coli, DY1, 17 h; E. coli DY-1; agar dilution, Mueller-Hinton agar; read-out: Minimal Inhibitory Concentration (MIC)
Procedure, shortened: (§1)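 Agar dilution MIC: Mueller-Hinton agar, 2-fold compound series, inoculum 10^6 CFU/ml, 35°-37° C., 17±1 h.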

K. pneumoniae NCTC 9632 = experiment: MIC by agar dilution, K. pneumoniae NCTC 9632; format: cell-based; settings: Klebsiella pneumoniae, NCTC9632, 17 h; K. pneumoniae NCTC 9632; agar dilution, Mueller-Hinton agar; read-out: Minimal Inhibitory Concentration (MIC)
Procedure, shortened: as §1

Staph. aureus Smith = experiment: MIC by agar dilution, Staph. aureus Smith; format: cell-based; settings: Staphylococcus aureus, 17 h, Mueller-Hinton agar, read-out: Minimal Inhibitory Concentration (MIC)
Procedure, shortened: as §1

Staph. aureus C-5113 = experiment: MIC by agar dilution, Staph. aureus C-5113; format: cell-based; settings: Staphylococcus aureus, C5113, 17 h, Mueller-Hinton agar, read-out: Minimal Inhibitory Concentration (MIC)
Procedure, shortened: as §1

Ent. aerogenes IFO 12979 = experiment: MIC by agar dilution, Ent. aerogenes IFO 12979; format: cell-based; settings: Klebsiella aerogenes, IFO12979, 17 h, Mueller-Hinton agar, read-out: Minimal Inhibitory Concentration (MIC)
Procedure, shortened: as §1

M. morganii DY-1 = experiment: MIC by agar dilution, M. morganii DY-1; format: cell-based; settings: Morganella morganii, DY1, 17 h; M. morganii DY-1; agar dilution, Mueller-Hinton agar; read-out: Minimal Inhibitory Concentration (MIC)
Procedure, shortened: as §1

[1] = system: Ps. aeruginosa ATCC 10145; experiment: MIC by agar dilution, Ps. aeruginosa ATCC 10145; format: cell-based; settings: Pseudomonas aeruginosa, ATCC10145, 17 h, Mueller-Hinton agar, read-out: Minimal Inhibitory Concentration (MIC)
Procedure, shortened: as §1

Ps. aeruginosa DY-2 = experiment: MIC by agar dilution, Ps. aeruginosa DY-2; format: cell-based; settings: Pseudomonas aeruginosa, DY2, 17 h; Ps. aeruginosa DY-2; agar dilution, Mueller-Hinton agar; read-out: Minimal Inhibitory Concentration (MIC)
Procedure, shortened: as §1

Prov. stuartii IFO 12930 = experiment: MIC by agar dilution, Prov. stuartii IFO 12930; format: cell-based; settings: Providencia stuartii, IFO12930, 17 h, Mueller-Hinton agar, read-out: Minimal Inhibitory Concentration (MIC)
Procedure, shortened: as §1

Staph. aureus C-57 = experiment: MIC by agar dilution, Staph. aureus C-57; format: cell-based; settings: Staphylococcus aureus, C57, 17 h, Mueller-Hinton agar, read-out: Minimal Inhibitory Concentration (MIC)
Procedure, shortened: as §1

[2] = system: Gram-negative bacteria such as Pseudomonas aeruginosa; settings: background art; cited from earlier work
[3] = system: Gram-positive bacteria, in particular, Staphylococcus species; settings: background art; cited from earlier work
Ent. cloacae IFO 13535 = experiment: MIC by agar dilution, Ent. cloacae IFO 13535; format: cell-based; settings: Enterobacter cloacae, IFO13535, 17 h; Ent. cloacae IFO 13535; agar dilution, Mueller-Hinton agar; read-out: Minimal Inhibitory Concentration (MIC)
Procedure, shortened: as §1

[4] = system: Ser. marcescens IFO 12648; experiment: MIC by agar dilution, Ser. marcescens IFO 12648; format: cell-based; settings: Serratia marcescens, IFO12648, 17 h; Ser. marcescens IFO 12648; agar dilution, Mueller-Hinton agar; read-out: Minimal Inhibitory Concentration (MIC)
Procedure, shortened: as §1

Staph. aureus C-5216 = experiment: MIC by agar dilution, Staph. aureus C-5216; format: cell-based; settings: Staphylococcus aureus, C5216, 17 h, Mueller-Hinton agar, read-out: Minimal Inhibitory Concentration (MIC)
Procedure, shortened: as §1

E. coli No. 29 = experiment: MIC by agar dilution, E. coli No. 29; format: cell-based; settings: Escherichia coli, 17 h; E. coli No. 29; agar dilution, Mueller-Hinton agar; read-out: Minimal Inhibitory Concentration (MIC)
Procedure, shortened: as §1

E. coli NIHJ JC-2 = experiment: MIC by agar dilution, E. coli NIHJ JC-2; format: cell-based; settings: Escherichia coli, NIHJJC2, 17 h; E. coli NIHJ JC-2; agar dilution, Mueller-Hinton agar; read-out: Minimal Inhibitory Concentration (MIC)
Procedure, shortened: as §1

[5] = system: S. epidermidis ATCC 12228; experiment: MIC by agar dilution, S. epidermidis ATCC 12228; format: cell-based; settings: Staphylococcus epidermidis, ATCC12228, 17 h; S. epidermidis ATCC 12228; agar dilution, Mueller-Hinton agar; read-out: Minimal Inhibitory Concentration (MIC)
Procedure, shortened: as §1

[6] = system: Ps. aeruginosa NCTC 10490; experiment: MIC by agar dilution, Ps. aeruginosa NCTC 10490; format: cell-based; settings: Pseudomonas aeruginosa, NCTC10490, 17 h, Mueller-Hinton agar, read-out: Minimal Inhibitory Concentration (MIC)
Procedure, shortened: as §1

P. vulgaris NCTC 8313 = experiment: MIC by agar dilution, P. vulgaris NCTC 8313; format: cell-based; settings: Proteus vulgaris, NCTC8313, 17 h; P. vulgaris NCTC 8313; agar dilution, Mueller-Hinton agar; read-out: Minimal Inhibitory Concentration (MIC)
Procedure, shortened: as §1

B. subtilis ATCC 6633 = experiment: MIC by agar dilution, B. subtilis ATCC 6633; format: cell-based; settings: Bacillus subtilis, ATCC6633, 17 h; B. subtilis ATCC 6633; agar dilution, Mueller-Hinton agar; read-out: Minimal Inhibitory Concentration (MIC)
Procedure, shortened: as §1

Staph. aureus ATCC 6538P = experiment: MIC by agar dilution, Staph. aureus ATCC 6538P; format: cell-based; settings: Staphylococcus aureus, ATCC6538P, 17 h; Staph. aureus ATCC 6538P; agar dilution, Mueller-Hinton agar; read-out: Minimal Inhibitory Concentration (MIC)
Procedure, shortened: as §1

- MIC (E. coli DY-1): ≤ 0.006 µg/mL
- MIC (K. pneumoniae NCTC 9632): 0.025 µg/mL (≈ 0.0549 µM)
- MIC (Staph. aureus Smith): 1.56 µg/mL (≈ 3.43 µM)
- MIC (Staph. aureus C-5113): 3.13 µg/mL (≈ 6.87 µM)
- MIC (Ent. aerogenes IFO 12979): 0.025 µg/mL (≈ 0.0549 µM)
- MIC (M. morganii DY-1): 0.025 µg/mL (≈ 0.0549 µM)
- MIC [1]: 6.25 µg/mL (≈ 13.7 µM)
- MIC (Ps. aeruginosa DY-2): 12.5 µg/mL (≈ 27.4 µM)
- MIC (Prov. stuartii IFO 12930): ≤ 0.006 µg/mL
- MIC (Staph. aureus C-57): 100 µg/mL (≈ 220 µM)
- MIC (Ent. cloacae IFO 13535): 0.78 µg/mL (≈ 1.71 µM)
- MIC [4]: 0.05 µg/mL (≈ 0.11 µM)
- MIC (Staph. aureus C-5216): 1.56 µg/mL (≈ 3.43 µM)
- MIC (E. coli No. 29): ≤ 0.006 µg/mL
- MIC (E. coli NIHJ JC-2): 0.05 µg/mL (≈ 0.11 µM)
- MIC [5]: 0.1 µg/mL (≈ 0.22 µM)
- MIC [6]: 0.78 µg/mL (≈ 1.71 µM)
- MIC (P. vulgaris NCTC 8313): ≤ 0.006 µg/mL
- MIC (B. subtilis ATCC 6633): 0.1 µg/mL (≈ 0.22 µM)
- MIC (Staph. aureus ATCC 6538P): 0.78 µg/mL (≈ 1.71 µM)
Compound: CO/N=C(\C(=O)N[C@@H]1C(=O)N2C(C(=O)O)=C(COC(C)=O)CS[C@H]12)c1csc(N)n1 [CTX, Cefotaxime, reference compound]
- antibacterial activities against Gram-negative bacteria such as Pseudomonas aeruginosa [2]: less effective antibacterial activities
- antibacterial activities against Gram-positive bacteria, in particular Staphylococcus species [3]: have antibacterial activities against Staphylococcus species
